# According to patent publication US20220395472A1 (Dermavant Sciences GmbH, priority 2021, published 2022):
# Several values for one entry are separate records, joined by “and”; a condition that tells them apart may be missing. Identical values can stand only once. Like-named read-outs stand apart in the source and are kept apart here.
# Assays:
# [1] = tested on: adult and adolescent subjects with AD; conditions: cited from earlier work
# [2] = tested on: adults with plaque psoriasis; assay: Long-term extension study (PSOARING 3): adverse events; format: in vivo, human
# Description: Endpoints: Incidence, frequency, and nature of AEs, adverse events of special interest (AESIs), and serious adverse events (SAEs), Change over time in clinical laboratory tests and frequency of clinically significant abnormal test results, Change over time in vital signs and frequency of clinically significant abnormal results, Local Tolerability Scale (LTS) scores by severity summarized by visit.
# Safety assessments included AEs, AESIs, SAEs, local (application site) tolerability, clinical laboratory tests, vital signs, physical examinations, and Investigator assessed LTS. Efficacy assessments included a 5 point static PGA (0 [clear], 1 [almost clear], 2 [mild], 3 [moderate], 4 [severe]), % BSA affected, the PASI, and subject reported DLQI.
# [3] = In vitro studies in human skin microsomes: metabolic turnover; format: in vitro ADME
# Description: (§1) The reason for the decrease in plasma concentrations over time is unknown. Without wishing to be bound by theory, as the skin heals, there may be less penetration of the drug through the stratum corneum and into the systemic circulation since the barrier is restored.
# [4] = tested on: mild to severe plaque psoriasis; assay: Treat-to-target pooled analysis of the PSOARING trials; format: in vivo, human
# Description: In addition to a % BSA of ≤1.0% and PASI75, pooled analyses explored more aggressive targets, including the proportion of patients with % BSA of ≤0.5%, or an absolute PASI score of ≤1, ≤2 or ≤3. […] Safety analyses are based on all patients who received tapinarof in the PSOARING trials.
# [5] = tested on: adults with plaque psoriasis; assay: Long-term extension study (PSOARING 3): PASI score, PASI75, PASI90; format: in vivo, human
# Description: The PASI scoring system is a widely used, standard, clinical tool for assessing the severity of psoriasis that takes into account the overall severity of erythema (redness), induration (plaque thickness), scale, and the extent of % BSA affected with psoriasis. The 3 clinical signs are each graded on a 5 point scale (0 to 4) and the % BSA affected is scored on a 7 point scale (0 to 6) for each of the 4 specified body regions (head, upper extremities, trunk, and lower extremities). Individual scores are multiplied by a weighted factor for each body region; the sum of these scores gives the overall PASI score. Higher scores indicate more severe disease. PASI is a static assessment made without reference to previous scores. Details on PASI calculation can be found in Appendix 2 of the protocol.
# [6] = Maximal use study with serial PK sampling: plasma concentrations; format: in vivo, human; conditions: between Days 1 and 29
# Description: (FIG. 2). This decline is further supported by serial PK data collected from previous clinical studies over 28 days of dosing and over 21 days of dosing.
# [7] = Preclinical repeat-dose systemic exposure; format: in vivo
# Description: as §1
# [8] = final analysis, Tapinarof→Tapinarof
# [9] = final analysis, Vehicle→Tapinarof
# [10] = Week 16, LOCF, Tapinarof (Pivotal) group
# [11] = Week 16, LOCF, Vehicle (Pivotal) group
# [12] = Week 16, OC, Tapinarof (Pivotal) group
# [13] = Week 16, OC, Vehicle (Pivotal) group
# [14] = Week 16, Observed Cases, Overall
# [15] = Week 16, Observed Cases, Tapinarof (Pivotal) group
# [16] = Week 16, Observed Cases, Vehicle (Pivotal) group
# [17] = Week 40, LOCF, Tapinarof (Pivotal) group
# [18] = Week 40, LOCF, Vehicle (Pivotal) group
# [19] = Week 40, OC, Tapinarof (Pivotal) group
# [20] = Week 40, OC, Vehicle (Pivotal) group
# [21] = Week 40, Observed Cases, Tapinarof (Pivotal) group
# [22] = Week 40, Observed Cases, Vehicle (Pivotal) group
structure (smiles),measurement,setting,value
"CC(C)c1c(O)cc(/C=C/c2ccccc2)cc1O [Tapinarof, 3,5-Dihydroxy-4-isopropyl-trans-stilbene]",reported TEAEs,[1]; 1% BID arm,70%
same,proportion subjects with ≥75% improvement in EASI,[1]; 1% BID,60%
same,Treatment success for IGA (clear or almost clear with minimum 2-point improvement),"[1]; 1% QD arm, Week 8",49%
same,proportion subjects with ≥75% improvement in EASI,"[1]; 1% QD arm, Week 8",57%
same,Treatment success for IGA (clear or almost clear with minimum 2-point improvement),"[1]; 1% QD arm, Week 12",46%
same,proportion subjects with ≥75% improvement in EASI,"[1]; 1% QD arm, Week 12",57%
same,reported TEAEs,[1]; 1% QD arm,54%
same,proportion subjects with ≥75% improvement in EASI,[1]; 1% QD,51%
same,TEAE incidence: contact dermatitis,[2]; final analysis,5.5%
same,TEAE incidence: folliculitis,[2]; final analysis,22.7%
same,TEAE incidence: upper respiratory tract infection,[2]; final analysis,4.7%
same,discontinuation rate due to contact dermatitis,[2]; final analysis,1.4%
same,discontinuation rate due to folliculitis,[2]; final analysis,1.2%
same,Study discontinuation due to AESI: Dermatitis contact,"[2]; final analysis, Overall",11 (1.4) n (%)
same,Study discontinuation due to AESI: Folliculitis,"[2]; final analysis, Overall",9 (1.2) n (%)
same,Study discontinuation due to AESI: Headache,"[2]; final analysis, Overall",0 n (%)
same,Study discontinuation due to TEAEs,"[2]; final analysis, Overall",41 (5.4) n (%)
same,Treatment-emergent AESI: Dermatitis contact,"[2]; final analysis, Overall",45 (5.9) n (%)
same,Treatment-emergent AESI: Folliculitis,"[2]; final analysis, Overall",183 (24.0) n (%)
same,Treatment-emergent AESI: Headache,"[2]; final analysis, Overall",15 (2.0) n (%)
same,Study discontinuation due to AESI: Dermatitis contact,[2]; [8],7 (1.4) n (%)
same,Study discontinuation due to AESI: Folliculitis,[2]; [8],6 (1.2) n (%)
same,Study discontinuation due to AESI: Headache,[2]; [8],0 n (%)
same,Study discontinuation due to TEAEs,[2]; [8],26 (5.1) n (%)
same,Treatment-emergent AESI: Dermatitis contact,[2]; [8],24 (4.7) n (%)
same,Treatment-emergent AESI: Folliculitis,[2]; [8],124 (24.4) n (%)
same,Treatment-emergent AESI: Headache,[2]; [8],10 (2.0) n (%)
same,Study discontinuation due to AESI: Dermatitis contact,[2]; [9],4 (1.6) n (%)
same,Study discontinuation due to AESI: Folliculitis,[2]; [9],3 (1.2) n (%)
same,Study discontinuation due to AESI: Headache,[2]; [9],0 n (%)
same,Study discontinuation due to TEAEs,[2]; [9],15 (5.9) n (%)
same,Treatment-emergent AESI: Dermatitis contact,[2]; [9],21 (8.2) n (%)
same,Treatment-emergent AESI: Folliculitis,[2]; [9],59 (23.1) n (%)
same,Treatment-emergent AESI: Headache,[2]; [9],5 (2.0) n (%)
same,study discontinuation rate due to contact dermatitis,[2]; interim,1.4%
same,study discontinuation rate due to folliculitis,[2]; interim,1.2%
same,Premature discontinuation due to AEs,"[2]; interim, Overall",5.8%
same,Premature discontinuation due to AEs,"[2]; interim, Tapinarof (Pivotal) group",5.7%
same,Premature discontinuation due to AEs,"[2]; interim, Vehicle (Pivotal) group",5.9%
same,metabolic turnover,[3],no metabolic turnover
same,KM estimated median time to target % BSA≤0.5%,"[4]; 915 patients, baseline PGA≥2",199 days
same,mean time to target PASI≤3,"[4]; 915 patients, baseline PGA≥2",58 days
same,median time to target % BSA≤1.0%,"[4]; 915 patients, baseline PGA≥2",120 days
same,median time to target PASI≤1,"[4]; 915 patients, baseline PGA≥2",185 days
same,median time to target PASI≤2,"[4]; 915 patients, baseline PGA≥2",87 days
same,patients who achieved % BSA≤0.5%,"[4]; 915 patients, baseline PGA≥2",49.7%
same,patients who achieved % BSA≤1.0%,"[4]; 915 patients, baseline PGA≥2",61.3% and 61%
same,patients who achieved PASI≤1,"[4]; 915 patients, baseline PGA≥2",50.3%
same,patients who achieved PASI≤2,"[4]; 915 patients, baseline PGA≥2",66.9% and 67%
same,patients who achieved PASI≤3,"[4]; 915 patients, baseline PGA≥2",75.0%
same,patients who achieved ≤1% BSA affected,[4]; within ˜3 months,40%
same,PASI75 Responder,"[5]; Week 16, LOCF, Overall, listed as tapinarof",21.3%
same,PASI75 Non-Responder,[5]; [10],413/491 (84.1) %
same,PASI75 Responder,[5]; [10],78/491 (15.9) %
same,Subjects with reduction of ≥90% from Baseline in PASI (PASI90),[5]; [10],13.0%
same,mean (SD) PASI score,[5]; [10],2.74 (3.324)
same,PASI75 Responder,"[5]; Week 16, LOCF, Tapinarof (Pivotal) group, listed as tapinarof",15.9%
same,PASI75 Non-Responder,[5]; [11],170/250 (68.0) %
same,PASI75 Responder,[5]; [11],80/250 (32.0) %
same,Subjects with reduction of ≥90% from Baseline in PASI (PASI90),[5]; [11],15.2%
same,mean (SD) PASI score,[5]; [11],3.47 (3.794)
same,PASI75 Responder,"[5]; Week 16, LOCF, Vehicle (Pivotal) group, listed as tapinarof",32.0%
same,Subjects with reduction of ≥90% from Baseline in PASI (PASI90),[5]; [12],13.6%
same,mean (SD) PASI score,[5]; [12],2.38 (2.652)
same,Subjects with reduction of ≥90% from Baseline in PASI (PASI90),[5]; [13],15.9%
same,mean (SD) PASI score,[5]; [13],2.95 (3.020)
same,PASI75 Non-Responder,[5]; [14],478/619 (77.2) %
same,PASI75 Responder,[5]; [14],141/619 (22.8) %
same,PASI75 Responder,"[5]; Week 16, Observed Cases, Overall, listed as tapinarof",22.8%
same,PASI75 Non-Responder,[5]; [15],342/412 (83.0) %
same,PASI75 Responder,[5]; [15],70/412 (17.0) %
same,PASI75 Responder,"[5]; Week 16, Observed Cases, Tapinarof (Pivotal) group, listed as tapinarof",17.0%
same,PASI75 Non-Responder,[5]; [16],136/207 (65.7) %
same,PASI75 Responder,[5]; [16],71/207 (34.3) %
same,PASI75 Responder,"[5]; Week 16, Observed Cases, Vehicle (Pivotal) group, listed as tapinarof",34.3%
same,PASI75 Non-Responder,"[5]; Week 16 LOCF, Overall",583/741 (78.7) %
same,PASI75 Responder,"[5]; Week 16 LOCF, Overall",158/741 (21.3) %
same,Subjects with reduction of ≥90% from Baseline in PASI (PASI90),"[5]; Week 16 LOCF, Overall",13.8%
same,mean (SD) PASI score,"[5]; Week 16 LOCF, Overall",2.99 (3.504)
same,Subjects with reduction of ≥90% from Baseline in PASI (PASI90),"[5]; Week 16 OC, Overall",14.4%
same,mean (SD) PASI score,"[5]; Week 16 OC, Overall",2.57 (2.791)
same,PASI75 Responder,"[5]; Week 40, LOCF, Overall, listed as tapinarof",25.3%
same,PASI75 Non-Responder,[5]; [17],409/492 (83.1) %
same,Subjects with reduction of ≥90% from Baseline in PASI (PASI90),[5]; [17],11.2%
same,mean (SD) PASI score,[5]; [17],2.80 (3.443)
same,PASI75 Responder,"[5]; Week 40, LOCF, Tapinarof (Pivotal) group, listed as tapinarof",16.9%
same,PASI75 Non-Responder,[5]; [18],146/251 (58.2) %
same,PASI75 Responder,[5]; [18],105/251 (41.8) %
same,Subjects with reduction of ≥90% from Baseline in PASI (PASI90),[5]; [18],20.7%
same,mean (SD) PASI score,[5]; [18],3.28 (3.937)
same,PASI75 Responder,"[5]; Week 40, LOCF, Vehicle (Pivotal) group, listed as tapinarof",41.8%
same,Subjects with reduction of ≥90% from Baseline in PASI (PASI90),[5]; [19],13.1%
same,mean (SD) PASI score,[5]; [19],2.38 (2.672)
same,Subjects with reduction of ≥90% from Baseline in PASI (PASI90),[5]; [20],27.4%
same,mean (SD) PASI score,[5]; [20],2.31 (3.008)
same,PASI75 Responder,"[5]; Week 40, Observed Cases, Overall",30.9%
same,PASI75 Non-Responder,[5]; [21],186/236 (78.8) %
same,PASI75 Responder,[5]; [21],50/236 (21.2) %
same,PASI75 Responder,"[5]; Week 40, Observed Cases, Tapinarof (Pivotal) group, listed as tapinarof",21.2%
same,PASI75 Non-Responder,[5]; [22],55/113 (48.7) %
same,PASI75 Responder,[5]; [22],58/113 (51.3) %
same,PASI75 Responder,"[5]; Week 40, Observed Cases, Vehicle (Pivotal) group, listed as tapinarof",51.3%
same,PASI75 Non-Responder,"[5]; Week 40 LOCF, Overall",555/743 (74.7) %
same,PASI75 Responder,"[5]; Week 40 LOCF, Overall",188/743 (25.3) %
same,Subjects with reduction of ≥90% from Baseline in PASI (PASI90),"[5]; Week 40 LOCF, Overall",14.4%
same,mean (SD) PASI score,"[5]; Week 40 LOCF, Overall",2.97 (3.622)
same,Subjects with reduction of ≥90% from Baseline in PASI (PASI90),"[5]; Week 40 OC, Overall",17.8%
same,mean (SD) PASI score,"[5]; Week 40 OC, Overall",2.36 (2.781)
same,decline in plasma concentrations,[6],10 fold
same,systemic exposures with repeat dosing compared to single doses,[7]; minipigs,no changes in systemic exposures
same,systemic exposures with repeat dosing compared to single doses,[7]; rats,no changes in systemic exposures
